In the experiment the target is T1, hTSHR (Homo sapiens, UniProt P16473).
T1 construct: expressed in transfected cells
Briefly: hTSHR TR-FRET cAMP Assay (inhibition of M22-stimulated cAMP production). The following applies: Expi293F Inducible cells stably expressing hTSHR; cAMP HTRF; stimulated with EC80 of anti-TSHR antibody M22; 15 min compound preincubation, 30 min at 37° C.; read-out: Activity (IC50 bins). The class given is cell-based. The procedure, abridged:
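Readout was a cAMP HTRF ratio of 655/620 nm after lysis, scaled between the EC80 M22 signal (0% inhibition) and no-agonist vehicle (100%). Frozen induced Expi293F-hTSHR cells saw test compounds (0.5% DMSO) for 15 min at 37 °C before 30 min of M22 stimulation at EC80.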

T1 sequence (P16473 21-764): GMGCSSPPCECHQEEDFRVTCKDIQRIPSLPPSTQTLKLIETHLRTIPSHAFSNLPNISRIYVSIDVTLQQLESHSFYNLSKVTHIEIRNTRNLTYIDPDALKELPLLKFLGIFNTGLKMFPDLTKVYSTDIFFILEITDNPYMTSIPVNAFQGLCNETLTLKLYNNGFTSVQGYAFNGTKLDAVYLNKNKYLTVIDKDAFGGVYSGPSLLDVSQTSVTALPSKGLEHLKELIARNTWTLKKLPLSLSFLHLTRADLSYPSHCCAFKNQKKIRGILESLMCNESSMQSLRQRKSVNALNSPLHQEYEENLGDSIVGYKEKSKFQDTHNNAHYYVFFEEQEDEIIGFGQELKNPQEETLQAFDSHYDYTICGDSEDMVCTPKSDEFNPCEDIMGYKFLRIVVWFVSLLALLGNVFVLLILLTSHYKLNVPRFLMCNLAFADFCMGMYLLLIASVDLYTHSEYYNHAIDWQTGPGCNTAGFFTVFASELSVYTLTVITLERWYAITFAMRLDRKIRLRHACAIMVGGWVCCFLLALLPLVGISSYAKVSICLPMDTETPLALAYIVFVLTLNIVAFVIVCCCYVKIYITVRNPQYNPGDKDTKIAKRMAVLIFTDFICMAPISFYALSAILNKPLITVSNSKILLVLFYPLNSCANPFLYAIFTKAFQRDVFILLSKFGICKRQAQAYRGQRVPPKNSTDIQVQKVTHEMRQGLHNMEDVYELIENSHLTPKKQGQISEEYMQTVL

`CC(C)(C)NC(=O)Nc1ccc2c(c1)OCC(=O)N2Cc1cccc(C(O)CC(F)(F)F)c1` (centres unmarked) [Example 80, 1-(tert-butyl)-3-(3-oxo-4-(3-(3,3,3-trifluoro-1-hydroxypropyl)ben-zyl)-3,4-dihydro-2H-benzo[b][1,4]oxa-zin-7-yl)urea]: the IC50 fell in the range of 100 to 1000 nM.
For `C[C@@H](c1cccc(OC(F)(F)F)c1)n1c(=O)cnc2cc(NC(=O)NC(C)(C)C)ccc21` [Example 100, (S)-1-(tert-butyl)-3-(2-oxo-1-(1-(3-(trifluoromethoxy)phe-nyl)ethyl)-1,2-dihydroquinoxalin-6-yl)urea] the value was under 100 nM.
Consider `C[C@H]1Oc2cc(NC(=O)NC(C)(C)C)ccc2N(Cc2cc(Cl)ccc2C#N)C1=O` [Example 85, (R)-1-(tert-butyl)-3-(4-(5-chloro-2-cyanobenzyl)-2-methyl-3-oxo-3,4-dihydro-2H-benzo[b][1,4]oxazin-7-yl)urea], for which the IC50 lay within 100 to 1000 nM.
The value for `C[C@H]1Oc2cc(NC(=O)NC(C)(C)C)c(F)cc2N([C@@H](C)c2ccccc2)C1=O` [Example 328, 1-(tert-butyl)-3-((R)-6-fluoro-2-methyl-3-oxo-4-((S)-1-phenylethyl)-3,4-dihydro-2H-benzo[b][1,4]oxazin-7-yl)urea] was 100 to 1000 nM; that for `CC(C)(C)NC(=O)Nc1ccc2c(c1)OCC(=O)N2Cc1ccccc1` [Example 7, 1-(4-benzyl-3-oxo-3,4-dihydro-2H-benzo[b][1,4]oxazin-7-yl)-3-(tert-butyl)urea] was under 100 nM.
For `C[C@H](c1cccc(C(F)(F)F)c1)N1C(=O)CCc2nc(NC(=O)NC(C)(C)C)ccc21` [Example 283, (R)-1-(tert-butyl)-3-(6-oxo-5-(1-(3-(trifluoromethyl)phenyl)ethyl)-5,6,7,8-tetrahydro-1,5-naphthyridin-2-yl)urea] the value was over 1000 nM; for `C[C@@H](c1cccc(OC(F)(F)F)c1)n1c(=O)cnc2c(F)c(NC(=O)NC(C)(C)C)ccc21` [Example 353, 3-tert-butyl-1-{5-fluoro-2-oxo-1-[(1S)-1-[3-(trifluoromethoxy)phenyl]ethyl]quinoxalin-6-yl}urea], 100 to 1000 nM.
Consider `C[C@H]1Oc2cc(NC(=O)NC(C)(C)C)ccc2N([C@@H](C)c2cccc(C(F)F)c2)C1=O` [Example 185, 1-(tert-butyl)-3-((R)-4-((S)-1-(3-(difluoromethyl)phenyl)ethyl)-2-methyl-3-oxo-3,4-dihydro-2H-benzo[b][1,4]oxazin-7-yl)urea], for which the half-inhibitory concentration (IC50) was under 100 nM.
With `C[C@H]1Oc2cc(NC(=O)NC(C)(C)C)ccc2N(Cc2cccc(C(O)C(F)(F)F)n2)C1=O` (stereo partly drawn) [Example 173, 1-(tert-butyl)-3-((2R)-2-methyl-3-oxo-4-((6-(2,2,2-trifluoro-1-hydroxy-ethyl)pyridin-2-yl)methyl)-3,4-dihydro-2H-benzo [b][1,4]oxazin-7-yl)urea], the half-inhibitory concentration (IC50) fell in the range of 100 to 1000 nM.
For `Cc1nc2cc(NC(=O)NC(C)(C)C)ccc2n([C@@H](C)c2cccc(OC(F)(F)F)c2)c1=O` [Example 182, (S)-1-(tert-butyl)-3-(3-methyl-2-oxo-1-(1-(3-(trifluoromethoxy)phenyl)ethyl)-1,2-dihydroquinoxalin-6-yl)urea] the value was 100 to 1000 nM; for `C[C@H]1Oc2cc(NC(=O)NC(C)(C)C)ccc2N(Cc2cncc(C(F)(F)F)n2)C1=O` [Example 169, (R)-1-(tert-butyl)-3-(2-methyl-3-oxo-4-((6-(trifluoro-methyl)pyrazin-2-yl)methyl)-3,4-dihydro-2H-benzo [b][1,4]oxazin-7-yl)urea], 100 to 1000 nM; for `C[C@@H](c1ccc2c(c1)OCCC2)n1c(=O)cnc2cc(NC(=O)NC(C)(C)C)ccc21` [Example 152, (S)-1-(tert-butyl)-3-(1-(1-(chroman-7-yl)ethyl)-2-oxo-1,2-dihydroquinoxalin-6-yl)urea], over 1000 nM.
As for `C[C@H]1Oc2cc(NC(=O)OC3CCCC3)ccc2N(Cc2cccc(C(F)(F)F)n2)C1=O` [Example 304, cyclopentyl N-[(2R)-2-methyl-3-oxo-4-{[6-(trifluoromethyl)pyridin-2-yl]methyl}-2H-1,4-benzoxazin-7-yl]carbamate], the IC50 is under 100 nM.
For `C[C@H]1Oc2cc(NC(=O)NC3CC4CC4C3)ccc2N(Cc2cccc(C(F)(F)F)n2)C1=O` (stereo partly drawn) [Example 230, 1-(bicyclo[3.1.0]hexan-3-yl)-3-((R)-2-methyl-3-oxo-4-((6-(trifluoromethyl)pyridin-2-yl)methyl)-3,4-dihydro-2H-benzo[b][1,4]oxazin-7-yl)urea], the 50% inhibitory concentration (IC50) was 100 to 1000 nM.
The value for `C[C@H]1Oc2cc(NC(=O)NC(C)(C)C)c(F)cc2N(Cc2ccccc2)C1=O` [Example 326, (R)-1-(4-benzyl-6-fluoro-2-methyl-3-oxo-3,4-dihydro-2H-benzo[b][1,4]oxazin-7-yl)-3-(tert-butyl)urea] was 100 to 1000 nM.
For `C[C@@H](c1cccc(OC(F)(F)F)c1)n1c(=O)cnc2cc(NC(=O)NC(C)(C)C)c(C#N)cc21` [Example 352, 3-tert-butyl-1-{7-cyano-2-oxo-1-[(1S)-1-[3-(trifluoromethoxy)phenyl]ethyl]quinoxalin-6-yl}urea] the value was 100 to 1000 nM.
For `C[C@@H](c1cccc(Cl)c1)n1c(=O)cnc2cc(NC(=O)NC3(C)CCC3)ccc21` [Example 319, (S)-1-(1-(1-(3-chlorophenyl)ethyl)-2-oxo-1,2-dihydroquinoxalin-6-yl)-3-(1-methylcyclobutyl)urea] the value was 100 to 1000 nM; for `C[C@@H](c1cccc(C(F)(F)F)c1)n1c(=O)cnc2cc(NC(=O)NC3(C)CCC3)ccc21` [Example 320, (S)-1-(1-methylcyclobutyl)-3-(2-oxo-1-(1-(3-(trifluoromethyl)phenyl)ethyl)-1,2-dihydroquinoxalin-6-yl)urea], 100 to 1000 nM; for `CC(c1cccc2c1cnn2CCC(F)(F)F)n1c(=O)cnc2cc(NC(=O)NC(C)(C)C)ccc21` (centres unmarked) [Example 251, 1-(tert-butyl)-3-(2-oxo-1-(1-(1-(3,3,3-trifluoropropyl)-1H-indazol-4-yl)ethyl)-1,2-dihydro-quinoxalin-6-yl)urea], over 1000 nM.
Regarding `COc1cccc(CN2C(=O)[C@@H](C)Oc3cc(NC(=O)NC(C)(C)C)ccc32)c1` [Example 164, (R)-1-(tert-butyl)-3-(4-(3-methoxy-benzyl)-2-methyl-3-oxo-3,4-dihydro-2H-benzo [b][1,4]oxazin-7-yl)urea], the IC50 is 100 to 1000 nM.
As to `C[C@H]1Oc2cc(NC(=O)NC(C)(C)C)ccc2N(Cc2cc(C(F)(F)F)ccc2C#N)C1=O` [Example 83, (R)-1-(tert-butyl)-3-(4-(2-cyano-5-(trifluoromethyl)benzyl)-2-methyl-3-oxo-3,4-dihydro-2H-benzo[b][1,4]oxazin-7-yl)urea], the 50% inhibitory concentration (IC50) was over 1000 nM.
On to `C[C@H]1Oc2cc(NC(=O)NC(C)(C)C)ccc2N(Cc2nc(C(F)(F)F)cs2)C1=O` [Example 168, (R)-1-(tert-butyl)-3-(2-methyl-3-oxo-4-((4-(trifluoro-methyl)thiazol-2-yl)methyl)-3,4-dihydro-2H-benzo [b][1,4]oxazin-7-yl)urea], for which the concentration for half-maximal inhibition (IC50) was in the range of 100 to 1000 nM.
The value for `CC(C)(C)NC(=O)Nc1ccc2c(c1)CCC(=O)N2Cc1cccc(F)c1` [Example 26, 1-(tert-butyl)-3-(1-(3-fluorobenzyl)-2-oxo-1,2,3,4-tetrahydroquinolin-6-yl)urea] was under 100 nM.
In the case of `C[C@@H](c1ccccc1)n1c(=O)cnc2cc(NC(=O)NC(C)(C)C)c(C3CC3)cc21` [Example 348, 3-tert-butyl-1-{7-cyclopropyl-2-oxo-1-[(1S)-1-phenylethyl]quinoxalin-6-yl}urea], the IC50 was in the range of 100 to 1000 nM.
The value for `CC(C)(C)NC(=O)Nc1cc(F)c2c(c1)CCC(=O)N2Cc1ccccc1` [Example 69, 1-(1-benzyl-8-fluoro-2-oxo-1,2,3,4-tetrahydroquinolin-6-yl)-3-(tert-butyl)urea] was 100 to 1000 nM.
For `C[C@H](c1ccnc(C(F)(F)F)n1)N1C(=O)[C@@H](C)Oc2cc(NC(=O)NC(C)(C)C)ccc21` (single isomer, unassigned) [Example 311] the value was over 1000 nM; for `CC(c1cccc(OC(F)(F)F)c1)n1c(=O)cnc2cc(NC(=O)[C@H]3CCC3(C)C)ccc21` (stereo in doubt) [Example 220, (S)-2,2-dimethyl-N-(2-oxo-1-((R)-1-(3-(trifluoromethoxy)phenyl)ethyl)-1,2-dihydroquinoxalin-6-yl) cyclobutane-1-carboxamide], 100 to 1000 nM; for `C[C@@H](c1cc(Cl)ccc1Cl)n1c(=O)cnc2cc(NC(=O)NC(C)(C)C)c(Cl)cc21` [Example 365, (S)-1-(tert-butyl)-3-(7-chloro-1-(1-(2,5-dichlorophenyl)ethyl)-2-oxo-1,2-dihydroquinoxalin-6-yl)urea], under 100 nM.
In the case of `CC(C)(CO)CNC(=O)Nc1ccc2c(c1)ncc(=O)n2Cc1cccc(OC(F)(F)F)c1` [Example 242, 1-(3-hydroxy-2,2-dimethylpropyl)-3-(2-oxo-1-(3-(trifluoromethoxy)benzyl)-1,2-dihydroquinoxalin-6-yl)urea], the IC50 was over 1000 nM.
`CC(C)(NC(=O)Nc1ccc2c(c1)ncc(=O)n2Cc1ccccc1)C(F)F` [Example 199, 1-(1-benzyl-2-oxo-1,2-dihydroquinoxalin-6-yl)-3-(1,1-difluoro-2-methylpropan-2-yl)urea]: the half-inhibitory concentration (IC50) was in the range of 100 to 1000 nM.
In the case of `C[C@@H](c1cccc(OC(F)F)c1)n1c(=O)cnc2cc(NC(=O)NC(C)(C)C)ccc21` [Example 128, (S)-1-(tert-butyl)-3-(1-(1-(3-(difluoromethoxy)phe-nyl)ethyl)-2-oxo-1,2-dihydroquinoxalin-6-yl)urea], the half-maximal inhibitory concentration (IC50) fell in the range of 100 to 1000 nM.
The value for `C[C@@H](c1cccc(C(O)C(F)(F)F)n1)n1c(=O)cnc2cc(NC(=O)NC(C)(C)C)ccc21` (stereo in doubt) [Example 154, 1-(tert-butyl)-3-(2-oxo-1-((S)-1-(6-((R)-2,2,2-trifluoro-1-hydroxyethyl)pyridin-2-yl)ethyl)-1,2-dihydroquinoxalin-6-yl)urea] was 100 to 1000 nM.
